Assay: pH dependent solubility of Compound A
Assay type: physicochemical
Settings: acidic conditions of the stomach (around pH 2) versus near neutral conditions of the lower intestine (around pH 7); Compound A and its salts or solvates, in particular the maleate salt

CN(CCOc1ccc(CC2SC(=O)NC2=O)cc1)c1ccccn1 (stereo not shown) [Compound A, 5-[4-[2-(N-methyl-N-(2 pyridyl)amino)ethoxy]benzyl]thiazolidine-2,4-dione]
pH dependent solubility: more soluble in the acidic conditions of the stomach (around pH 2) than in the near neutral conditions of the lower intestine (around pH 7)
